Measured values taken from patent US10189837B2, “Crystalline (8S,9R)-5-fluoro-8-(4-fluorophenyl)-9-(1-methyl-1H-1,2,4-triazol-5-yl)-8,9-dihydro-2H-pyrido[4,3,2-de]phthalazin-3(7H)-one tosylate salt” (Medivation Technologies, LLC, priority 2010, dated 2019).

Legend:
Assay type in all cases: physicochemical
[1] = Thermogravimetric analysis (TGA); conditions: for Weight Change: ramp 10.00 °C/min to 300.00 °C; for % Change in weight: ramp 10.00 °C/min to 400.00 °C
Procedure: Unless otherwise noted, TGA thermograms were acquired using a TA Instruments Q500 Thermogravimetric Analyzer (New Castle, Del., USA). Samples were weighed out into the pan. Except as noted below, the temperature was ramped from 25.00° C. to 400.00° C. at 10.00° C./minute.
A TGA thermogram for tosylate salt prepared using the steps described in Variation 2 was acquired using a Mettler Toledo Thermogravimetric Analyzer/Differential Scanning Calorimeter 1. The temperature was ramped from 25° C. to 400° C. at 10° C./minute.

[2] = Dynamic vapor sorption (DVS) isotherm
Procedure: 1 model from Surface Measurement Systems Ltd. (Alperton, Middlesex, UK). A moisture adsorption desorption isotherm was performed as outlined below. The standard isotherm run is a cycle starting at RH 0% to RH 95% at 5% intervals, followed by drying to RH 0% in 5% RH intervals.

[3] = Thermogravimetric analysis (TGA); conditions: ramp 10.00 °C/min to 300.00 °C
[4] = TGA, start about 25 °C, stop 120 °C, tosylate salt
[5] = TGA, start about 25 °C, stop 250 °C, tosylate salt

Cc1ccc(S(=O)(=O)O)cc1.Cn1ncnc1[C@H]1c2n[nH]c(=O)c3cc(F)cc(c23)N[C@@H]1c1ccc(F)cc1 [(8S,9R)-5-fluoro-8-(4-fluorophenyl)-9-(1-methyl-1H-1,2,4-triazol-5-yl)-8,9-dihydro-2H-pyrido[4,3,2-de]phthalazin-3(7H)-one mono-tosylate salt]
stability to heat (TGA trace) ([1]; 25 °C to 400 °C at 10 °C/minute, prior to the onset of decomposition at the melting point): stable to heat
hygroscopicity (DVS) ([2]; 25 °C, humidity 0% to 95%): not hygroscopic
weight gain (DVS) ([2]; 25 °C, humidity increased from 0% to 95%): less than 1%
Change in Mass (%) Desorption ([2]; Target % P/Po 0.0): −0.0015%
Change in Mass (%) Desorption ([2]; Target % P/Po 5.0): 0.0203%
Change in Mass (%) Desorption ([2]; Target % P/Po 10.0): 0.0326%
Change in Mass (%) Desorption ([2]; Target % P/Po 15.0): 0.0421%
Change in Mass (%) Desorption ([2]; Target % P/Po 20.0): 0.0513%
Change in Mass (%) Desorption ([2]; Target % P/Po 25.0): 0.0649%
Change in Mass (%) Desorption ([2]; Target % P/Po 30.0): 0.0791%
Change in Mass (%) Desorption ([2]; Target % P/Po 35.0): 0.0947%
Change in Mass (%) Desorption ([2]; Target % P/Po 40.0): 0.1084%
Change in Mass (%) Desorption ([2]; Target % P/Po 45.0): 0.1266%
Change in Mass (%) Desorption ([2]; Target % P/Po 50.0): 0.1456%
Change in Mass (%) Desorption ([2]; Target % P/Po 55.0): 0.1668%
Change in Mass (%) Desorption ([2]; Target % P/Po 60.0): 0.1895%
Change in Mass (%) Desorption ([2]; Target % P/Po 65.0): 0.2192%
Change in Mass (%) Desorption ([2]; Target % P/Po 70.0): 0.2535%
Change in Mass (%) Desorption ([2]; Target % P/Po 75.0): 0.2919%
Change in Mass (%) Desorption ([2]; Target % P/Po 80.0): 0.3402%
Change in Mass (%) Desorption ([2]; Target % P/Po 85.0): 0.4113%
Change in Mass (%) Desorption ([2]; Target % P/Po 90.0): 0.5230%
Change in Mass (%) Desorption ([2]; Target % P/Po 95.0): 0.7473%

Cn1ncnc1[C@H]1c2n[nH]c(=O)c3cc(F)cc(c23)N[C@@H]1c1ccc(F)cc1 [compound 1, (8S,9R)-5-fluoro-8-(4-fluorophenyl)-9-(1-methyl-1H-1,2,4-triazol-5-yl)-8,9-dihydro-2H-pyrido[4,3,2-de]phthalazin-3(7H)-one]
Weight Change ([3]; TGA at 120 °C): 1.45%
Weight Change ([3]; TGA at 238 °C): 9.214%
Weight Change ([3]; TGA at […]): 4.068%
Weight Change ([1]; TGA at 225 °C): 9.125%
Weight Change ([1]; TGA at 252 °C): 9.265%

Cn1ncnc1[C@H]1c2n[nH]c(=O)c3cc(F)cc(c23)N[C@@H]1c1ccc(F)cc1 [compound 3, (8S,9R)-5-fluoro-8-(4-fluorophenyl)-9-(1-methyl-1H-1,2,4-triazol-5-yl)-8,9-dihydro-2H-pyrido[4,3,2-de]phthalazin-3(7H)-one]
Weight Change ([3]; TGA at 120 °C): 2.33%
Weight Change ([3]; TGA at 178 °C): 2.829%
Weight Change ([1]; TGA at 152 °C): 2.584%
Weight Change ([1]; TGA at 205 °C): 3.42%
Weight Change ([1]; TGA at 250 °C): 5.193%

Cc1ccc(S(=O)(=O)O)cc1.Cn1ncnc1[C@H]1c2n[nH]c(=O)c3cc(F)cc(c23)N[C@@H]1c1ccc(F)cc1 [compound 5, (8S,9R)-5-fluoro-8-(4-fluorophenyl)-9-(1-methyl-1H-1,2,4-triazol-5-yl)-8,9-dihydro-2H-pyrido[4,3,2-de]phthalazin-3(7H)-one tosylate salt]
% Change in weight ([1]; TGA, start 25.13 °C, stop 340.46 °C): 43.54%
% Change in weight [1, 4]: 0.1231%
% Change in weight [1, 5]: 0.2894%

Cc1ccc(S(=O)(=O)O)cc1.Cn1ncnc1[C@H]1c2n[nH]c(=O)c3cc(F)cc(c23)N[C@@H]1c1ccc(F)cc1 [compound 6, (8S,9R)-5-fluoro-8-(4-fluorophenyl)-9-(1-methyl-1H-1,2,4-triazol-5-yl)-8,9-dihydro-2H-pyrido[4,3,2-de]phthalazin-3(7H)-one tosylate salt]
% Change in weight ([1]; TGA, start 25.2 °C, stop 338.56 °C): 24.56%
% Change in weight [1, 4]: 0.0388%
% Change in weight [1, 5]: 0.5425%

Cc1ccc(S(=O)(=O)O)cc1.Cn1ncnc1[C@H]1c2n[nH]c(=O)c3cc(F)cc(c23)N[C@@H]1c1ccc(F)cc1 [compound 7, (8S,9R)-5-fluoro-8-(4-fluorophenyl)-9-(1-methyl-1H-1,2,4-triazol-5-yl)-8,9-dihydro-2H-pyrido[4,3,2-de]phthalazin-3(7H)-one tosylate salt]
% Change in weight ([1]; TGA, start 25.5 °C, stop 334 °C): 26.55%
% Change in weight [1, 4]: 0.2109%
% Change in weight [1, 5]: 2.552%

Cc1ccc(S(=O)(=O)O)cc1.Cn1ncnc1[C@H]1c2n[nH]c(=O)c3cc(F)cc(c23)N[C@@H]1c1ccc(F)cc1 [compound 8, (8S,9R)-5-fluoro-8-(4-fluorophenyl)-9-(1-methyl-1H-1,2,4-triazol-5-yl)-8,9-dihydro-2H-pyrido[4,3,2-de]phthalazin-3(7H)-one tosylate salt]
% Change in weight ([1]; TGA, start 24.9 °C, stop 274.33 °C): 2.071%
% Change in weight ([1]; TGA, start 24.9 °C, stop 320 °C): 19.97%
% Change in weight ([1]; TGA, start 24.9 °C, stop 335 °C): 34.56%
% Change in weight ([1]; TGA, start 24.9 °C, stop 363.03 °C): 50.39%
% Change in weight ([1]; TGA, start 24.9 °C, stop 394.92 °C): 54.39%
% Change in weight [1, 4]: 0.06696%
weight gain (DVA) ([2]; from 0%-95% RH): 0.1574%

Cn1ncnc1[C@H]1c2n[nH]c(=O)c3cc(F)cc(c23)N[C@@H]1c1ccc(F)cc1 [compound 11, (8S,9R)-5-fluoro-8-(4-fluorophenyl)-9-(1-methyl-1H-1,2,4-triazol-5-yl)-8,9-dihydro-2H-pyrido[4,3,2-de]phthalazin-3(7H)-one]
weight loss ([1]; TGA at 134.8 °C): 5.72%

Cn1ncnc1[C@H]1c2n[nH]c(=O)c3cc(F)cc(c23)N[C@@H]1c1ccc(F)cc1 [compound 12, (8S,9R)-5-fluoro-8-(4-fluorophenyl)-9-(1-methyl-1H-1,2,4-triazol-5-yl)-8,9-dihydro-2H-pyrido[4,3,2-de]phthalazin-3(7H)-one]
weight loss ([1]; TGA at 139.06 °C): 7.034%

Cn1ncnc1[C@H]1c2n[nH]c(=O)c3cc(F)cc(c23)N[C@@H]1c1ccc(F)cc1 [compound 19, (8S,9R)-5-fluoro-8-(4-fluorophenyl)-9-(1-methyl-1H-1,2,4-triazol-5-yl)-8,9-dihydro-2H-pyrido[4,3,2-de]phthalazin-3(7H)-one]
Weight Change ([3]; TGA at 120 °C): 1.054%
Weight Change ([3]; TGA at 174 °C): 5.977%
Weight Change ([3]; TGA at 185 °C): 7.82%
Weight Change ([3]; TGA at 238 °C): 8.874%
Weight Change ([1]; TGA at 161 °C): 4.256%

Cn1ncnc1[C@H]1c2n[nH]c(=O)c3cc(F)cc(c23)N[C@@H]1c1ccc(F)cc1 [compound 20, (8S,9R)-5-fluoro-8-(4-fluorophenyl)-9-(1-methyl-1H-1,2,4-triazol-5-yl)-8,9-dihydro-2H-pyrido[4,3,2-de]phthalazin-3(7H)-one]
Weight Change ([3]; TGA at 120 °C): 1.926%
Weight Change ([3]; TGA at 189.67 °C): 3.234%
Weight Change ([3]; TGA at 256.48 °C): 3.448%
Weight Change ([1]; TGA at 174.03 °C): 3.167%

Cn1ncnc1[C@H]1c2n[nH]c(=O)c3cc(F)cc(c23)N[C@@H]1c1ccc(F)cc1 [compound 21, (8S,9R)-5-fluoro-8-(4-fluorophenyl)-9-(1-methyl-1H-1,2,4-triazol-5-yl)-8,9-dihydro-2H-pyrido[4,3,2-de]phthalazin-3(7H)-one]
weight loss ([1]; TGA at 142.46 °C): 3.7%
weight loss ([1]; TGA at 256.48 °C): 4.259%

Cn1ncnc1[C@H]1c2n[nH]c(=O)c3cc(F)cc(c23)N[C@@H]1c1ccc(F)cc1 [compound 24, (8S,9R)-5-fluoro-8-(4-fluorophenyl)-9-(1-methyl-1H-1,2,4-triazol-5-yl)-8,9-dihydro-2H-pyrido[4,3,2-de]phthalazin-3(7H)-one]
weight loss ([1]; TGA at 223.8 °C): 17.47%
weight loss ([1]; TGA, ambient to 120 °C): 0.9388%
